Columns and labels:
[1] = Solubility in test solutions at different pHs and water; format: physicochemical; conditions: 37° C.
Experimental: (§1) Test substances: the compound of formula (I) was prepared by example 1 of the present invention, the crystal form I was prepared by example 2 of the present invention, the crystal form II was prepared by example 16 of the present invention, the crystal form III was prepared by example 20 of the present invention, the crystal form IV was prepared by example 24 of the present invention, the crystal form V was prepared by example 25 of the present invention, the crystal form VI was prepared by example 27 of the present invention, and the crystal form VII was prepared by example 31 of the present invention.
Preparation of Buffered Salt Solutions at Different pHs:
hydrochloric acid solution at pH 1.0:9 ml of hydrochloric acid was pipetted, and water was added for dilution to 1000 ml; the mixture was mixed homogeneously to obtain a hydrochloric acid solution at pH 1.03. Phosphate buffered solution at pH 4.5:1.56 g of sodium dihydrogen phosphate dihydrate was weighed, and 200 ml of water was added to obtain a phosphate buffered solution at pH 4.50. Phosphate buffered solution at pH 6.8:1.56 g of sodium dihydrogen phosphate dihydrate was weighed, and 200 ml of water was added; and the mixture was adjusted to pH 6.80 with 1 mol/L sodium hydroxide solution.
preparation of buffered solutions at different pHs (samples for determining solubility):
50 mg of each test substance was weighed, and 5 ml of the hydrochloric acid solution (pH 1.0) was added; and the mixture was mixed homogeneously with shaking. About 2.5 mg of each test substance was weighed, and 5 ml of the phosphate buffered solution (pH 4.5), 5 ml of the phosphate buffered solution (pH 6.8), and 5 ml of ultrapure water were added, respectively; the mixture was mixed homogeneously with shaking, and then placed in a 37° C. water bath shaker for shaking; the samples were collected at 24 hours and subjected to centrifugation; and the supernatant was taken and directly injected (if the solubility was high, the supernatant was diluted with a 0.1 mol/L hydrochloric acid solution to an appropriate multiple and then injected).
The solubility of the samples was quantitatively calculated according to the single-point external standard method.

[2] = Stability test of different crystal forms; format: physicochemical
Experimental: as §1, with “substances:” for “substances: the compound of formula (I) was prepared by example 1 of the present invention,”
Method: the appropriate amount of different test substances were taken, and placed at 105° C. for 3 days, and at 60° C. and RH 92.5% under light for 5 days and 10 days, respectively; and the samples were collected on day 0, day 3, day 5 and day 10 to investigate the changes in the trait and content of the samples.
Table 5 and Table 6 show the results of the trait and content after placement at 105° C. for 3 days. Table 7 and Table 8 show the results of the trait and content after placement at 60° C. and RH 92.5% under light for 5 days. Table 9 and Table 10 show the results of the trait and content after placement at RH 92.5% under light for 10 days.

[3] = Pharmacokinetic evaluation in rats; format: in vivo, male SD rats
Experimental: Test substances: the compound of formula (I) was prepared by example 1 of the present invention, and the crystal form I was prepared by example 2 of the present invention.
Administration to Animals and Sample Collection:
(§2) the compound of formula (I) for the experiment was dissolved with 2% DMSO+10% PEG400+88% (28% HP-3-CD) physiological saline to prepare a solution; the solution of the test substance was administered to SD rats by gavage at a dose of 5.0 mg/kg; and the blood sampling time points were 15 min, 30 min, 1 h, 2 h, 4 h, 6 h, 8 h and 24 h after administration.
as §2, with “The compound” for “the compound”, “by intravenous bolus” for “by gavage”, “of 1” for “of 5.0”, “were 5 min,” for “were”
The crystal form I for the experiment was dissolved with 5% DMSO+10% PEG400+85% (20% captisol) physiological saline solution to prepare a solution; the solution of the test substance was administered to SD rats by gavage at a dose of 60.0 mg/kg; and the blood sampling time points were 15 min, 30 min, 1 h, 2 h, 4 h, 8 h, 24 h, 30 h and 48 h after administration.
The crystal form I for the experiment was dissolved with 2% DMSO+10% PEG400+88% (28% HP-β-CD) physiological saline to prepare a solution; the solution of the test substance was administered to SD rats by intravenous bolus at a dose of 5 mg/kg; and the blood sampling time points were 5 min, 15 min, 30 min, 1 h, 4 h, 8 h, 12 h and 24 h after administration.
Compound of formula (I): the ordinary SD rats were used and fixed; the tails of the rats were heated in a water bath 10 minutes before each time point; and about 100 μL of blood was collected via a tail vein, and then placed in an anticoagulation tube containing EDTA-K2. The blood sample was centrifuged at 8000 rpm at 4° C. for 6 min to obtain a plasma sample, which was prepared within 30 minutes after blood collection. The plasma was stored in a refrigerator at −80° C. before the test.
Crystal form I: the rats were subjected to jugular vein cannulation (JVC); each time, about 0.35 ml of blood was collected from the rats via a jugular vein cannula into a centrifuge tube containing 5 μl of 15% EDTA-K2; the mixture was gently mixed to obtain a homogeneous mixture, and then the centrifuge tube was placed in an ice bath immediately. Within 1 hour after collecting whole blood, the mixture was centrifuged at 4° C. and 2400×g for 5 minutes, and the supernatant was immediately collected to obtain a plasma sample. The plasma was stored in a refrigerator at −80° C. before the test.
the plasma sample to be tested was taken out from the −80° C. refrigerator, subjected to natural melting at room temperature, and then vortexed for 5 min; […] of the plasma sample was precisely pipetted into a 1.5 mL centrifuge tube; […] of the internal standard working solution (tolbutamide in methanol) at a concentration of 100 ng/mL was added, and the mixture was mixed homogeneously; the homogeneous mixture was vortexed for 5 min, and then centrifuged at 12000 rpm for 5 min; 50 μL of the supernatant was precisely pipetted into a 96-well plate pre-filled with 150 μL of water/well; and the plate was vortexed for 5 min for homogenization, and subjected to LC-MS/MS assay, with a sample loading volume of 5 μL. […]

[4] = pH 4.5 phosphate buffered solution
[5] = pH 6.8 phosphate buffered solution
[6] = pH 1.0 hydrochloric acid solution
[7] = male SD rats, intravenous bolus 1 mg/kg

Row | Structure (SMILES) | 24-hour solubility ([1]; Water) [µg/mL] | 24-hour solubility [1, 4] [µg/mL] | 24-hour solubility [1, 5] [µg/mL] | Content ([2]; 0 day) [%] | Trait ([2]; 0 day) | Content ([2]; Placed at 60° C. for 5 days) [%] | Content ([2]; Placed at 105° C. for 3 days) [%] | Trait ([2]; Placed at 105° C. for 3 days) | Content ([2]; Placed at RH 92.5% for 5 days) [%] | Content ([2]; Placed under light for 5 days) [%] | 24-hour solubility [1, 6] [µg/mL] | Content ([2]; Placed at RH 92.5% for 10 days) [%] | Trait ([2]; Placed at RH 92.5% for 10 days) | Content ([2]; Placed under light for 10 days) [%] | Trait ([2]; Placed under light for 10 days) | also measured
1 | CCc1cc2c(N3CCC(C)(OC)CC3)c(C#N)c(=O)[nH]c2cn1 [Crystal form VI, 6-ethyl-4-(4-methoxy-4-methylpiperidin-1-yl)-2-oxo-1,2-dihydro-1,7-diazanaphthal ene-3-carbonitrile] | 260 | 170 | 140 | 99.9 | Yellow powder | 99.8 | 99.7 | Yellow powder | 99.9 | 99.6 | – | – | – | – | – | –
2 | CCc1cc2c(N3CCC(C)(OC)CC3)c(C#N)c(=O)[nH]c2cn1 [Crystal form II, 6-ethyl-4-(4-methoxy-4-methylpiperidin-1-yl)-2-oxo-1,2-dihydro-1,7-diazanaphthal ene-3-carbonitrile] | 160 | 160 | 140 | 99.8 | Yellow powder | – | 99.5 | Yellow powder | – | – | 4540 | 99.8 | Yellow powder | 99.4 | Yellow powder | –
3 | CCc1cc2c(N3CCC(C)(OC)CC3)c(C#N)c(=O)[nH]c2cn1 [Crystal form III, 6-ethyl-4-(4-methoxy-4-methylpiperidin-1-yl)-2-oxo-1,2-dihydro-1,7-diazanaphthal ene-3-carbonitrile] | 230 | 150 | 120 | 99.9 | Yellow powder | 99.9 | 99.7 | Yellow powder | 99.9 | 99.8 | – | – | – | – | – | –
4 | CCc1cc2c(N3CCC(C)(OC)CC3)c(C#N)c(=O)[nH]c2cn1 [Crystal form IV, 6-ethyl-4-(4-methoxy-4-methylpiperidin-1-yl)-2-oxo-1,2-dihydro-1,7-diazanaphthal ene-3-carbonitrile] | 140 | 130 | 130 | 90.9 | Yellow powder | – | – | – | – | – | 1640 | 90.8 | Yellow powder | 90.9 | Yellow powder | –

Second part, led by results:

Row | 24-hour solubility ([1]; Water) [µg/mL] | 24-hour solubility [1, 4] [µg/mL] | 24-hour solubility [1, 5] [µg/mL] | Content ([2]; 0 day) [%] | Trait ([2]; 0 day) | Content ([2]; Placed at 60° C. for 5 days) [%] | Content ([2]; Placed at 105° C. for 3 days) [%] | Trait ([2]; Placed at 105° C. for 3 days) | Content ([2]; Placed at RH 92.5% for 5 days) [%] | Content ([2]; Placed under light for 5 days) [%] | 24-hour solubility [1, 6] [µg/mL] | Content ([2]; Placed at RH 92.5% for 10 days) [%] | Trait ([2]; Placed at RH 92.5% for 10 days) | Content ([2]; Placed under light for 10 days) [%] | Trait ([2]; Placed under light for 10 days) | Structure (SMILES) | also measured
5 | 330 | 350 | 360 | 97.3 | Yellow powder | – | – | – | – | – | 4670 | 97.4 | Yellow powder | 98.1 | Yellow powder | CCc1cc2c(N3CCC(C)(OC)CC3)c(C#N)c(=O)[nH]c2cn1 [Crystal form V, 6-ethyl-4-(4-methoxy-4-methylpiperidin-1-yl)-2-oxo-1,2-dihydro-1,7-diazanaphthal ene-3-carbonitrile] | –
6 | 170 | 160 | 160 | – | – | – | – | – | – | – | 5270 | – | – | – | – | CCc1cc2c(N3CCC(C)(OC)CC3)c(C#N)c(=O)[nH]c2cn1 [Compound of formula (I), 6-ethyl-4-(4-methoxy-4-methylpiperidin-1-yl)-2-oxo-1,2-dihydro-1,7-diazanaphthal ene-3-carbonitrile] | Tmax ([3]; Sprague-Dawley, rat, plasma, po, male SD rats, gavage 5.0 mg/kg): 30 min; pharmacokinetic characteristics ([3]; conclusion from Table 2, rats): excellent pharmacokinetic characteristics; AUClast PO/Dose ([3]; male SD rats, gavage 5.0 mg/kg): 387.2 h*ng/mL per mg/kg; tz1/2 PO ([3]; male SD rats, gavage 5.0 mg/kg): 2.68 h; AUClast iv/Dose [3, 7]: 748 h*ng/mL per mg/kg; Cl_obs iv [3, 7]: 24.2 mL/min/kg; Vz_obs iv [3, 7]: 2.13 L/kg; tz1/2 iv [3, 7]: 1.25 h
7 | 150 | 140 | 130 | 100.0 | – | 99.9 | – | – | 100.0 | 99.6 | 7550 | – | – | – | – | CCc1cc2c(N3CCC(C)(OC)CC3)c(C#N)c(=O)[nH]c2cn1 [Crystal form VII, 6-ethyl-4-(4-methoxy-4-methylpiperidin-1-yl)-2-oxo-1,2-dihydro-1,7-diazanaphthal ene-3-carbonitrile] | –

— patent US12234233B2, “Crystal form of phosphodiesterase inhibitor, preparation method therefor and use thereof” (TRANSTHERA SCIENCES (NANJING), INC., priority 2019, dated 2025)
